ChEMBL document CHEMBL1122903, “Synthesis, in vitro [3H]prazosin displacement, and in vivo activity of 3-aryl-4,5,6,7-tetrahydropyrazolo[4,3-c]pyridines, a new class of antihypertensive agents” (J Med Chem, 1985)
Where “and” joins values, the source holds several entries; their conditions need not be identical. Identical values can stand only once.

Experiments:
[1] = target: T1, Adrenergic receptor alpha-1 (Rattus norvegicus, UniProt P15823+P23944+P43140); assay: Ability to displace [3H]prazosin from postsynaptic alpha-1 adrenergic receptor of rat in vitro.; format: protein assay
T1 sequence (P15823 whole entry): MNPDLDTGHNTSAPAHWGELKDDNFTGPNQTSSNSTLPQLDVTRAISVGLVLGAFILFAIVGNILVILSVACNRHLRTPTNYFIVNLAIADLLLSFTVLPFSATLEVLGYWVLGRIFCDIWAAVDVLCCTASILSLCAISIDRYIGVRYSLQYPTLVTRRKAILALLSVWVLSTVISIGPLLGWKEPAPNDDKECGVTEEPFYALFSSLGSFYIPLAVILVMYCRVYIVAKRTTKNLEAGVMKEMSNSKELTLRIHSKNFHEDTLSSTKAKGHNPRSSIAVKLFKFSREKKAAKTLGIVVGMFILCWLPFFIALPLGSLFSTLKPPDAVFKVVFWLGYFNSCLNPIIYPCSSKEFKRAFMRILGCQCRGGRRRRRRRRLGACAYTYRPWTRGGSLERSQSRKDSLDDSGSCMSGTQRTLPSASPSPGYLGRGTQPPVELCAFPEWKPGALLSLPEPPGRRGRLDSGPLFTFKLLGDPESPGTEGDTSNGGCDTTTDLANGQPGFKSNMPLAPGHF
T1 sequence (P23944 whole entry): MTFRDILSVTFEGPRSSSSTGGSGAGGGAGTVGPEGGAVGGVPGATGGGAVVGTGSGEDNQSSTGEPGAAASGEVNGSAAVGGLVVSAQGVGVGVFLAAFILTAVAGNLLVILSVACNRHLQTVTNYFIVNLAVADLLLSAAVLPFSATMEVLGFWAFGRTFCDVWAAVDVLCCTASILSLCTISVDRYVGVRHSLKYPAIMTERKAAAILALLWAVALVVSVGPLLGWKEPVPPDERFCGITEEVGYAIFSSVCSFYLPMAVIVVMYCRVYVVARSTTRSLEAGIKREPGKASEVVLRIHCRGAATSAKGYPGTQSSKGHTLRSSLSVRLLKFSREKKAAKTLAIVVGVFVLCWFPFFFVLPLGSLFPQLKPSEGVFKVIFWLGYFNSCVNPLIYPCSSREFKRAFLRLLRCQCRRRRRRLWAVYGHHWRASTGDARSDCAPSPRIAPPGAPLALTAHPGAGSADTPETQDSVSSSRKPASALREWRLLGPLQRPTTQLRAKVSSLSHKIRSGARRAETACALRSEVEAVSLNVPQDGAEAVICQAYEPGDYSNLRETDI
T1 sequence (P43140 whole entry): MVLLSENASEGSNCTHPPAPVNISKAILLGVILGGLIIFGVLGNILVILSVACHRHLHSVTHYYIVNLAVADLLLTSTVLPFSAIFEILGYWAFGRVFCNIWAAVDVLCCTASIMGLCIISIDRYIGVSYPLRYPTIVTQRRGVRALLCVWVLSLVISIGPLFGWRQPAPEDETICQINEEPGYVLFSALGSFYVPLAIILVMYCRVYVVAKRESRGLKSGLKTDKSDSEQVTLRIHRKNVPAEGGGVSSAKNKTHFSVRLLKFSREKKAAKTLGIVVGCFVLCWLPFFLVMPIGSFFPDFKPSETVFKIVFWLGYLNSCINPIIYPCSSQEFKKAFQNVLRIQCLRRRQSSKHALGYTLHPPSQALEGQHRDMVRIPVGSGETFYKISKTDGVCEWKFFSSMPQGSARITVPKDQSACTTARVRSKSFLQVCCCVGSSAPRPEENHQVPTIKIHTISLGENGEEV

Rattus norvegicus = assay: Antihypertensive activity on spontaneously hypertensive rats, when administered orally at a dose 15 mg/kg; format: functional; conditions: route oral
Canis familiaris [2] = assay: Heart rate after 4 hours of oral administration in renal hypertensive dogs at dose 0.3 mg/kg; format: functional, Canis lupus familiaris
Canis familiaris [3] = assay: Peak effect after 2-4 hours systolic blood pressure after 7 days of oral administration in renal hypertensive dogs at dose 0.3 mg/kg; format: functional, Canis lupus familiaris, Artery
Canis familiaris [4] = assay: Heart rate after 2 hours of oral administration in renal hypertensive dogs at dose 0.3 mg/kg; format: functional, Canis lupus familiaris
Canis familiaris [5] = assay: Peak effect after 2-4 hours systolic blood pressure after 2 day of oral administration in renal hypertensive dogs at dose 0.3 mg/kg; format: functional, Canis lupus familiaris, Artery
Canis familiaris [6] = assay: Systolic blood pressure after 2 hours of oral administration in renal hypertensive dogs at dose 0.3 mg/kg; format: functional, Canis lupus familiaris
Canis familiaris [7] = assay: Heart rate after 2 hours of oral administration in renal hypertensive dogs at dose 0.5 mg/kg; format: functional, Canis lupus familiaris
Canis familiaris [8] = assay: Systolic blood pressure after 0 hours of oral administration in renal hypertensive dogs at dose 0.1 mg/kg; format: functional, Canis lupus familiaris
Canis familiaris [9] = assay: Systolic blood pressure after 6 hr of oral administration in renal hypertensive dogs at dose 0.5 mg/kg; format: functional, Canis lupus familiaris
Canis familiaris [10] = assay: Systolic blood pressure after 4 hr of oral administration in renal hypertensive dogs at dose 0.1 mg/kg; format: functional, Canis lupus familiaris
Canis familiaris [11] = assay: Heart rate after 6 hours of oral administration in renal hypertensive dogs at dose 0.1 mg/kg; format: functional, Canis lupus familiaris
Canis familiaris [12] = assay: Systolic blood pressure after 8 hr of oral administration in renal hypertensive dogs at dose 0.3 mg/kg; format: functional, Canis lupus familiaris
Canis familiaris [13] = assay: Systolic blood pressure after 2 hours of oral administration in renal hypertensive dogs at dose 0.1 mg/kg; format: functional, Canis lupus familiaris
Canis familiaris [14] = assay: Heart rate after 6 hours of oral administration in renal hypertensive dogs at dose 0.5 mg/kg; format: functional, Canis lupus familiaris
Canis familiaris [15] = assay: Systolic blood pressure after 0 hours of oral administration in renal hypertensive dogs at dose 0.5 mg/kg; format: functional, Canis lupus familiaris
Canis familiaris [16] = assay: Systolic blood pressure after 8 hr of oral administration in renal hypertensive dogs at dose 0.5 mg/kg; format: functional, Canis lupus familiaris
Canis familiaris [17] = assay: Systolic blood pressure after 2 hr of oral administration in renal hypertensive dogs at dose 0.5 mg/kg; format: functional, Canis lupus familiaris
Canis familiaris [18] = assay: Heart rate after 8 hours of oral administration in renal hypertensive dogs at dose 0.1 mg/kg; format: functional, Canis lupus familiaris
Canis familiaris [19] = assay: Heart rate after 4 hours of oral administration in renal hypertensive dogs at dose 0.5 mg/kg; format: functional, Canis lupus familiaris
Canis familiaris [20] = assay: Systolic blood pressure after 4 hr of oral administration in renal hypertensive dogs at dose 0.5 mg/kg; format: functional, Canis lupus familiaris
Canis familiaris [21] = assay: Peak effect after 2-4 hours systolic blood pressure after 1 days of oral administration in renal hypertensive dogs at dose 0.3 mg/kg; format: functional, Canis lupus familiaris, Artery
Canis familiaris [22] = assay: Systolic blood pressure after 4 hr of oral administration in renal hypertensive dogs at dose 0.3 mg/kg; format: functional, Canis lupus familiaris
Canis familiaris [23] = assay: Heart rate after 0 hours of oral administration in renal hypertensive dogs at dose 0.3 mg/kg; format: functional, Canis lupus familiaris
Canis familiaris [24] = assay: Heart rate after 0 hours of oral administration in renal hypertensive dogs at dose 0.5 mg/kg; format: functional, Canis lupus familiaris
Canis familiaris [25] = assay: Systolic blood pressure after 8 hr of oral administration in renal hypertensive dogs at dose 0.1 mg/kg; format: functional, Canis lupus familiaris
Canis familiaris [26] = assay: Heart rate after 6 hours of oral administration in renal hypertensive dogs at dose 0.3 mg/kg; format: functional, Canis lupus familiaris
Canis familiaris [27] = assay: Heart rate after 2 hours of oral administration in renal hypertensive dogs at dose 0.1 mg/kg; format: functional, Canis lupus familiaris
Canis familiaris [28] = assay: Heart rate after 8 hours of oral administration in renal hypertensive dogs at dose 0.3 mg/kg; format: functional, Canis lupus familiaris
Canis familiaris [29] = assay: Systolic blood pressure after 6 hr of oral administration in renal hypertensive dogs at dose 0.3 mg/kg; format: functional, Canis lupus familiaris
Canis familiaris [30] = assay: Heart rate after 4 hours of oral administration in renal hypertensive dogs at dose 0.1 mg/kg; format: functional, Canis lupus familiaris
Canis familiaris [31] = assay: Peak effect after 2-4 hours systolic blood pressure after 3 days of oral administration in renal hypertensive dogs at dose 0.3 mg/kg; format: functional, Canis lupus familiaris, Artery
Canis familiaris [32] = assay: Systolic blood pressure after 0 hours of oral administration in renal hypertensive dogs at dose 0.3 mg/kg; format: functional, Canis lupus familiaris
Canis familiaris [33] = assay: Systolic blood pressure after 6 hr of oral administration in renal hypertensive dogs at dose 0.1 mg/kg; format: functional, Canis lupus familiaris
Canis familiaris [34] = assay: Heart rate after 0 hours of oral administration in renal hypertensive dogs at dose 0.1 mg/kg; format: functional, Canis lupus familiaris
Canis familiaris [35] = assay: Heart rate after 8 hours of oral administration in renal hypertensive dogs at dose 0.5 mg/kg; format: functional, Canis lupus familiaris

`Cl.Clc1ccc(-c2[nH]nc3c2CNCC3)cc1` showed a Ki [1] of 0.145 µM and a Delta p (Rattus norvegicus) of 0%.

`COc1cc2nc(N3CCN(C(=O)c4ccco4)CC3)nc(N)c2cc1OC` [PRAZOSIN] gave a Heart rate (Canis familiaris [2]) of 100%, a Blood pressure (Canis familiaris [3]) of 100% and a Heart rate (Canis familiaris [4]) of 114%. For the same compound, the Blood pressure (Canis familiaris [5]) was 100% and 92%, the Blood pressure (Canis familiaris [6]) was 182 mmHg and the Heart rate (Canis familiaris [7]) was 94 beats min-1. The Blood pressure (Canis familiaris [8]) was 205 mmHg, the Blood pressure (Canis familiaris [9]) was 125 mmHg and the Blood pressure (Canis familiaris [10]) was 180 mmHg. For the same compound, the Heart rate (Canis familiaris [11]) was 96%, the Blood pressure (Canis familiaris [12]) was 180 mmHg and the Blood pressure (Canis familiaris [13]) was 186 mmHg. For the same compound, the Heart rate (Canis familiaris [14]) was 78 beats min-1, the Blood pressure (Canis familiaris [15]) was 190 mmHg and the Blood pressure (Canis familiaris [16]) was 150 mmHg. It also gave a Blood pressure (Canis familiaris [17]) of 135 mmHg, a Heart rate (Canis familiaris [18]) of 106% and a Heart rate (Canis familiaris [19]) of 82%. For the same compound, the Blood pressure (Canis familiaris [20]) was 125 mmHg, the Blood pressure (Canis familiaris [21]) was 96% and the Blood pressure (Canis familiaris [22]) was 160 mmHg. The Heart rate (Canis familiaris [23]) was 110 beats min-1, the Heart rate (Canis familiaris [24]) was 86 beats min-1 and the Blood pressure (Canis familiaris [25]) was 196 mmHg. For the same compound, the Heart rate (Canis familiaris [26]) was 90%, the Heart rate (Canis familiaris [27]) was 92% and the Heart rate (Canis familiaris [28]) was 100%. For the same compound, the Blood pressure (Canis familiaris [29]) was 165 mmHg, the Heart rate (Canis familiaris [30]) was 94% and the Blood pressure (Canis familiaris [31]) was 96%. It also gave a Blood pressure (Canis familiaris [32]) of 202 mmHg, a Blood pressure (Canis familiaris [33]) of 193 mmHg and a Heart rate (Canis familiaris [34]) of 104 beats min-1. It also gave a Heart rate (Canis familiaris [35]) of 82 beats min-1.
